# Assays:
# [1] = system: Geobacillus stearothermophilus spores; test: Resistance of self-contained biological indicators to hydrogen peroxide sterilization, growth readout by pH colour change (GRO+); format: cell-based
# Description: (§1) PET film (.09 mm thick) was coated with colloidal silica as described in International Publication No. WO2014/189716, which is incorporated herein by reference in its entirety. […] Separate aqueous spore coating solutions were prepared as described in Example 1 with the amino acids shown in table 4 present in the coating solutions. Two microliter aliquots (containing at least 10^6 spores) of the respective spore coating solutions were deposited onto the silica-coated PET film, forming a series of spaced-apart spots on the film. The spore coated films were dried in a 60° C. incubator for 12 minutes. Circular discs (hereinafter, “coated carriers”) of the PET film, each disc including one of the dried spots, were punched out and were used to assemble self-contained biological indicators (BI) similar to that shown in FIG. 1 of International Publication No. WO2014/189716. The coated carriers described above were placed into the “spore carrier 135” shown in FIG. 1 of International Publication No. WO2014/189716. Each self-contained BI comprised a polycarbonate outer container, a breaker, a cap, and a cap filter. Disposed inside the outer container were a coated carrier along with an ampoule media containing the nutrient medium from 3M ATTEST 1292 Rapid Readout Biological Indicators plus 5g/L methionine (as described in Example 1).
# (§2) The self-contained biological indicators with different concentrations of additives (Table 4) were exposed to hydrogen peroxide sterilization in STERRAD NX sterilizer. The sterilization processes were run by manually injecting 1.0 ml of 59% hydrogen peroxide per load, unless specified otherwise. The exposure time was varied to determine the resistance profile of self-contained BIs with different additive formulations. The BIs were activated by pressing down the cap to break the media ampoule. The activated BIs were placed in a bench-top fluorimeter (3M Company, St. Paul, Minn.) to detect fluorescence.
# (§3) A self-contained BI that is not completely inactivated (i.e., not all of the spores are killed by the sterilization process) will resume cellular functions upon activation of the BI. The production of glucosidase enzyme by surviving spores is an indication that at least one of the spores have not been inactivated (killed) by the sterilization process. The glucosidase enzyme cleaves the 4-methylumbelliferyl-glucoside (MUG) releasing the fluorescent methyl umbelliferone, which is detected using a bench-top fluorimeter. Growth and proliferation of spores in the self-contained biological indicator can also be detected by a pH change, which may be detected by a color change of the pH indicator in the growth medium.
# (§4) Self-contained biological indicators were prepared (with various additives listed in table 4) as described above in this Example. For each additive tested, a lower range and a higher range was used as a preliminary screen to identify additives modulated the resistance of the spores to the sterilant. Five self-contained BIs representing each condition were exposed to hydrogen peroxide sterilization in STERRAD NX sterilizer. The sterilization processes used a constant injection volume (1.0 ml of 59% hydrogen peroxide) and various times (e.g., 20 seconds to 7 minutes) of exposure to the hydrogen peroxide. The self-contained BIs were activated after exposure to the sterilization process and were monitored for fluorescence using a bench-top fluorimeter) and pH based color change (visually). […]
# (§5) Self-contained biological indicators (with various additives listed in table 5) were prepared as described in Example 2. The self-contained biological indicators were exposed to hydrogen peroxide in a STERRAD NX sterilizer as described in Example 2. The self-contained BIs were activated after exposure to the sterilization process and were monitored for fluorescence using a bench-top fluorimeter and pH based color change (visually).
# [2] = system: Geobacillus stearothermophilus spores; test: Resistance of self-contained biological indicators to hydrogen peroxide sterilization, glucosidase enzyme activity fluorescence readout (ENZ+); format: cell-based
# Description: as §1, §2, §3, §4, §5
# [3] = Table 4, modulator 0.01 weight percent in spore coating solution, H2O2 exposure 30 sec.
# [4] = Table 4, modulator 0.01 weight percent in spore coating solution, H2O2 exposure 60 sec.
# [5] = Table 4, modulator 0.01 weight percent in spore coating solution, H2O2 exposure 90 sec.
# [6] = Table 4, modulator 0.01 weight percent in spore coating solution, H2O2 exposure 3 min.
# [7] = Table 4, modulator 0.01 weight percent in spore coating solution, H2O2 exposure 7 min.
# [8] = Table 4, modulator 0.1 weight percent in spore coating solution, H2O2 exposure 30 sec.
# [9] = Table 4, modulator 0.1 weight percent in spore coating solution, H2O2 exposure 60 sec.
# [10] = Table 4, modulator 0.1 weight percent in spore coating solution, H2O2 exposure 90 sec.
# [11] = Table 4, modulator 0.1 weight percent in spore coating solution, H2O2 exposure 3 min.
# [12] = Table 4, modulator 0.1 weight percent in spore coating solution, H2O2 exposure 7 min.
# [13] = Table 5, modulator 0.05 weight percent in spore coating solution, H2O2 exposure 20 sec.
# [14] = Table 5, modulator 0.05 weight percent in spore coating solution, H2O2 exposure 30 sec.
# [15] = Table 5, modulator 0.05 weight percent in spore coating solution, H2O2 exposure 60 sec.
# [16] = Table 5, modulator 0.05 weight percent in spore coating solution, H2O2 exposure 90 sec.
# [17] = Table 5, modulator 0.05 weight percent in spore coating solution, H2O2 exposure 3 min.
# [18] = Table 5, modulator 0.05 weight percent in spore coating solution, H2O2 exposure 7 min.
# [19] = Table 5, modulator 0.1 weight percent in spore coating solution, H2O2 exposure 20 sec.
# [20] = Table 5, modulator 0.1 weight percent in spore coating solution, H2O2 exposure 30 sec.
# [21] = Table 5, modulator 0.1 weight percent in spore coating solution, H2O2 exposure 60 sec.
# [22] = Table 5, modulator 0.1 weight percent in spore coating solution, H2O2 exposure 90 sec.
# [23] = Table 5, modulator 0.1 weight percent in spore coating solution, H2O2 exposure 3 min.
# [24] = Table 5, modulator 0.1 weight percent in spore coating solution, H2O2 exposure 7 min.
# [25] = Table 5, modulator 0.2 weight percent in spore coating solution, H2O2 exposure 20 sec.
# [26] = Table 5, modulator 0.2 weight percent in spore coating solution, H2O2 exposure 30 sec.
# [27] = Table 5, modulator 0.2 weight percent in spore coating solution, H2O2 exposure 60 sec.
# [28] = Table 5, modulator 0.2 weight percent in spore coating solution, H2O2 exposure 90 sec.
# [29] = Table 5, modulator 0.2 weight percent in spore coating solution, H2O2 exposure 3 min.
# [30] = Table 5, modulator 0.2 weight percent in spore coating solution, H2O2 exposure 7 min.
# [31] = Table 5, modulator 0.4 weight percent in spore coating solution, H2O2 exposure 20 sec.
# [32] = Table 5, modulator 0.4 weight percent in spore coating solution, H2O2 exposure 30 sec.
# [33] = Table 5, modulator 0.4 weight percent in spore coating solution, H2O2 exposure 60 sec.
# [34] = Table 5, modulator 0.4 weight percent in spore coating solution, H2O2 exposure 90 sec.
# [35] = Table 5, modulator 0.4 weight percent in spore coating solution, H2O2 exposure 3 min.
# [36] = Table 5, modulator 0.4 weight percent in spore coating solution, H2O2 exposure 7 min.
# [37] = Table 5, modulator 0.8 weight percent in spore coating solution, H2O2 exposure 20 sec.
# [38] = Table 5, modulator 0.8 weight percent in spore coating solution, H2O2 exposure 30 sec.
# [39] = Table 5, modulator 0.8 weight percent in spore coating solution, H2O2 exposure 60 sec.
# [40] = Table 5, modulator 0.8 weight percent in spore coating solution, H2O2 exposure 90 sec.
# [41] = Table 5, modulator 0.8 weight percent in spore coating solution, H2O2 exposure 3 min.
# [42] = Table 5, modulator 0.8 weight percent in spore coating solution, H2O2 exposure 7 min.
structure (smiles),measurement,setting,value
N[C@@H](Cc1c[nH]cn1)C(=O)O [L-histidine],sensitivity of the biological indicator to the sterilization process relative to the control with no additives,"[1]; Example 2 / Comparative Example 1 (Table 4), fluorescence and growth readouts",increased sensitivity (decreased resistance)
same,sensitivity of the spores to the damaging/lethal effects of the sterilization process relative to the control with no additives,"[1]; Example 3 (Table 5), fluorescence and growth readouts",increased sensitivity
same,percentage of self-contained biological indicators positive for growth (GRO+),[1]; [3],80%
same,percentage of self-contained biological indicators positive for growth (GRO+),[1]; [4],0%
same,percentage of self-contained biological indicators positive for growth (GRO+),[1]; [5],0%
same,percentage of self-contained biological indicators positive for growth (GRO+),[1]; [6],0%
same,percentage of self-contained biological indicators positive for growth (GRO+),[1]; [7],0%
same,percentage of self-contained biological indicators positive for growth (GRO+),[1]; [8],0%
same,percentage of self-contained biological indicators positive for growth (GRO+),[1]; [9],0%
same,percentage of self-contained biological indicators positive for growth (GRO+),[1]; [10],0%
same,percentage of self-contained biological indicators positive for growth (GRO+),[1]; [11],0%
same,percentage of self-contained biological indicators positive for growth (GRO+),[1]; [12],0%
same,percentage of self-contained biological indicators positive for growth (GRO+),[1]; [13],100%
same,percentage of self-contained biological indicators positive for growth (GRO+),[1]; [14],100%
same,percentage of self-contained biological indicators positive for growth (GRO+),[1]; [15],0%
same,percentage of self-contained biological indicators positive for growth (GRO+),[1]; [16],0%
same,percentage of self-contained biological indicators positive for growth (GRO+),[1]; [17],0%
same,percentage of self-contained biological indicators positive for growth (GRO+),[1]; [18],0%
same,percentage of self-contained biological indicators positive for growth (GRO+),[1]; [19],100%
same,percentage of self-contained biological indicators positive for growth (GRO+),[1]; [20],33%
same,percentage of self-contained biological indicators positive for growth (GRO+),[1]; [21],0%
same,percentage of self-contained biological indicators positive for growth (GRO+),[1]; [22],0%
same,percentage of self-contained biological indicators positive for growth (GRO+),[1]; [23],0%
same,percentage of self-contained biological indicators positive for growth (GRO+),[1]; [24],0%
same,percentage of self-contained biological indicators positive for growth (GRO+),[1]; [25],100%
same,percentage of self-contained biological indicators positive for growth (GRO+),[1]; [26],0%
same,percentage of self-contained biological indicators positive for growth (GRO+),[1]; [27],0%
same,percentage of self-contained biological indicators positive for growth (GRO+),[1]; [28],0%
same,percentage of self-contained biological indicators positive for growth (GRO+),[1]; [29],0%
same,percentage of self-contained biological indicators positive for growth (GRO+),[1]; [30],0%
same,percentage of self-contained biological indicators positive for growth (GRO+),[1]; [31],100%
same,percentage of self-contained biological indicators positive for growth (GRO+),[1]; [32],0%
same,percentage of self-contained biological indicators positive for growth (GRO+),[1]; [33],0%
same,percentage of self-contained biological indicators positive for growth (GRO+),[1]; [34],0%
same,percentage of self-contained biological indicators positive for growth (GRO+),[1]; [35],0%
same,percentage of self-contained biological indicators positive for growth (GRO+),[1]; [36],0%
same,percentage of self-contained biological indicators positive for growth (GRO+),[1]; [37],33%
same,percentage of self-contained biological indicators positive for growth (GRO+),[1]; [38],0%
same,percentage of self-contained biological indicators positive for growth (GRO+),[1]; [39],0%
same,percentage of self-contained biological indicators positive for growth (GRO+),[1]; [40],0%
same,percentage of self-contained biological indicators positive for growth (GRO+),[1]; [41],0%
same,percentage of self-contained biological indicators positive for growth (GRO+),[1]; [42],0%
same,percentage of self-contained biological indicators positive for glucosidase enzyme activity (ENZ+),[2]; [3],100%
same,percentage of self-contained biological indicators positive for glucosidase enzyme activity (ENZ+),[2]; [4],80%
same,percentage of self-contained biological indicators positive for glucosidase enzyme activity (ENZ+),[2]; [5],0%
same,percentage of self-contained biological indicators positive for glucosidase enzyme activity (ENZ+),[2]; [6],0%
same,percentage of self-contained biological indicators positive for glucosidase enzyme activity (ENZ+),[2]; [7],0%
same,percentage of self-contained biological indicators positive for glucosidase enzyme activity (ENZ+),[2]; [8],100%
same,percentage of self-contained biological indicators positive for glucosidase enzyme activity (ENZ+),[2]; [9],10%
same,percentage of self-contained biological indicators positive for glucosidase enzyme activity (ENZ+),[2]; [10],0%
same,percentage of self-contained biological indicators positive for glucosidase enzyme activity (ENZ+),[2]; [11],0%
same,percentage of self-contained biological indicators positive for glucosidase enzyme activity (ENZ+),[2]; [12],0%
same,percentage of self-contained biological indicators positive for glucosidase enzyme activity (ENZ+),[2]; [13],100%
same,percentage of self-contained biological indicators positive for glucosidase enzyme activity (ENZ+),[2]; [14],100%
same,percentage of self-contained biological indicators positive for glucosidase enzyme activity (ENZ+),[2]; [15],0%
same,percentage of self-contained biological indicators positive for glucosidase enzyme activity (ENZ+),[2]; [16],0%
same,percentage of self-contained biological indicators positive for glucosidase enzyme activity (ENZ+),[2]; [17],0%
same,percentage of self-contained biological indicators positive for glucosidase enzyme activity (ENZ+),[2]; [18],0%
same,percentage of self-contained biological indicators positive for glucosidase enzyme activity (ENZ+),[2]; [19],100%
same,percentage of self-contained biological indicators positive for glucosidase enzyme activity (ENZ+),[2]; [20],100%
same,percentage of self-contained biological indicators positive for glucosidase enzyme activity (ENZ+),[2]; [21],67%
same,percentage of self-contained biological indicators positive for glucosidase enzyme activity (ENZ+),[2]; [22],67%
same,percentage of self-contained biological indicators positive for glucosidase enzyme activity (ENZ+),[2]; [23],0%
same,percentage of self-contained biological indicators positive for glucosidase enzyme activity (ENZ+),[2]; [24],0%
same,percentage of self-contained biological indicators positive for glucosidase enzyme activity (ENZ+),[2]; [25],100%
same,percentage of self-contained biological indicators positive for glucosidase enzyme activity (ENZ+),[2]; [26],100%
same,percentage of self-contained biological indicators positive for glucosidase enzyme activity (ENZ+),[2]; [27],33%
same,percentage of self-contained biological indicators positive for glucosidase enzyme activity (ENZ+),[2]; [28],67%
same,percentage of self-contained biological indicators positive for glucosidase enzyme activity (ENZ+),[2]; [29],0%
same,percentage of self-contained biological indicators positive for glucosidase enzyme activity (ENZ+),[2]; [30],0%
same,percentage of self-contained biological indicators positive for glucosidase enzyme activity (ENZ+),[2]; [31],100%
same,percentage of self-contained biological indicators positive for glucosidase enzyme activity (ENZ+),[2]; [32],100%
same,percentage of self-contained biological indicators positive for glucosidase enzyme activity (ENZ+),[2]; [33],0%
same,percentage of self-contained biological indicators positive for glucosidase enzyme activity (ENZ+),[2]; [34],33%
same,percentage of self-contained biological indicators positive for glucosidase enzyme activity (ENZ+),[2]; [35],0%
same,percentage of self-contained biological indicators positive for glucosidase enzyme activity (ENZ+),[2]; [36],0%
same,percentage of self-contained biological indicators positive for glucosidase enzyme activity (ENZ+),[2]; [37],100%
same,percentage of self-contained biological indicators positive for glucosidase enzyme activity (ENZ+),[2]; [38],100%
same,percentage of self-contained biological indicators positive for glucosidase enzyme activity (ENZ+),[2]; [39],0%
same,percentage of self-contained biological indicators positive for glucosidase enzyme activity (ENZ+),[2]; [40],67%
same,percentage of self-contained biological indicators positive for glucosidase enzyme activity (ENZ+),[2]; [41],0%
same,percentage of self-contained biological indicators positive for glucosidase enzyme activity (ENZ+),[2]; [42],0%
